How the values were obtained:
His6-hsBMX = molecular target: T1, His6-hsBMX (Homo sapiens, UniProt P51813); assay: Surface plasmon resonance (SPR); type: binding; details: 1:1 Langmuir fit, 25 °C
T1 construct: Crystallization, data collection, and structure determination of BMX catalytic domain in; made in house; host or cells: Sf-9 insect cells
From the text: response upon compound injection (t=0s), or upon washing (t=220s), on immobilized His6-
hsBMX surfaces. Compound concentrations injected on already saturated surfaces were not
included in the 1:1 Langmuir fitting model. X-axis: time (s); y-axis: response (arbitrary units).
Inset plots [x-axis: compound concentration (M); y-axis: response (arbitrary units)] show the
steady-state affinity (KDss) fit for the interactions wherein equilibrium was reached.
Surface Plasmon Resonance:
The kinetic and affinity parameters of protein-compound interaction were evaluated by SPR.
Experiments were carried out in a Biacore 4000 instrument (Biacore AB, GE Healthcare Life
Sciences, Uppsala, Sweden) at 25 °C. His6-BMX protein was diluted to 10 µg/mL in sodium
acetate pH 5.5, in the presence of 5 µM staurosporine and immobilized onto CM5 (Series S)
sensor chips, using the standard amine coupling procedure. Prior to immobilization, the
carboxymethylated surface of the chip was activated with 400 mM 1-ethyl-3-(3-
dimethylaminopropyl)-carbodiimide and 100 mM N-hydroxysuccinimide for 10 min. HBS-N
(10 mM HEPES pH7.4, 150mM NaCl) was used as the background buffer. Protein was coupled
to the surface after 2 to 10 min injection times, at a flow rate of 10 µL/min, in order to reach
1500 to 3500 response units (RU). The remaining activated carboxymethylated groups were
blocked with a 7 min injection of 1 M ethanolamine pH 8.5. Compounds were pre-diluted in
DMSO to 50x the desired highest tested concentration and diluted afterwards in running buffer
(20 mM HEPES pH 7.4, 150 mM NaCl, 1 mM DTT, 0.1 mM EGTA, 0.05 % (v/v) TWEEN-
20, 5 mM MgCl2) in order to reach 2% of DMSO concentration. A DMSO solvent correction
(1% - 3%) was performed to account for variations in bulk signal and to achieve high-quality
data. Each compound was injected over immobilized His6-BMX for 220 s (30 µL min-1;
association phase) followed by 600 to 2000 s of buffer flow (dissociation phase) at a maximum
five times in 2-fold dilution series. All sensorgrams were processed by first subtracting the
binding response recorded from the control surface (reference spot), followed by subtracting
the buffer blank injection from the reaction spot. All datasets were fit to a simple 1:1 Langmuir
interaction model with the provided Biacore 4000 Evaluation software, to determine kinetic rate constants (kon, koff) or steady-state affinity (KDss).

Jurkat = assay: Multi cell line growth assay (CellTiter-Glo, 72 h); type: cell-based, human; details: Homo sapiens, Jurkat, Blood, ND = no growth inhibition observed
RS4(11) = assay: Multi cell line growth assay (CellTiter-Glo, 72 h); type: cell-based, human; details: Homo sapiens, RS4-11, Lung (so in the source), ND = no growth inhibition observed
BTK = BTK (Homo sapiens, UniProt Q06187); assay: KINOMEscan binding; details: read-out: % Ctrl BTK
Method: (§1) Therefore, we included the whole TEC, EGFR and JAK family in our screening, and the Src family and Lkb1, which also have a cysteine within the same sequence alignment.
(§2) Kinome selectivity was performed with DiscoverX KINOMEscan™ technology.

ITK = ITK (Homo sapiens, UniProt Q08881); assay: KINOMEscan binding; details: read-out: % Ctrl ITK
Method: as §1, §2

EGFR = EGFR (Homo sapiens, UniProt P00533); assay: KINOMEscan binding; details: read-out: % Ctrl EGFR
Method: as §1, §2

ERBB4 = ERBB4 (Homo sapiens, UniProt Q15303); assay: KINOMEscan binding; details: read-out: % Ctrl ERBB4
Method: as §1, §2

[1] = molecular target: JAK3(JH1domain-catalytic) (Homo sapiens, UniProt P52333); assay: KINOMEscan binding; details: read-out: % Ctrl JAK3(JH1domain-catalytic)
Method: (§3) Therefore, we included the whole TEC, EGFR and JAK family in our screening, and the Src family and Lkb1, which also have a cysteine within the same sequence alignment. We also included kinases involved in upstream (Src, FAK, PI3K, mTOR, PDK1) and downstream (Akt, PAK1, TAM) regulation of BMX signaling pathway and non-receptor tyrosine protein kinase Abl.
as §2

PIK3CA = PIK3CA (Homo sapiens, UniProt P42336); assay: KINOMEscan binding; details: read-out: % Ctrl PIK3CA
Method: as §3, §2

PIK3CB = PIK3CB (Homo sapiens, UniProt P42338); assay: KINOMEscan binding; details: read-out: % Ctrl PIK3CB
Method: as §3, §2

MTOR = MTOR (Homo sapiens, UniProt P42345); assay: KINOMEscan binding; details: read-out: % Ctrl MTOR
Method: as §3, §2

AKT3 = AKT3 (Homo sapiens, UniProt Q9Y243); assay: KINOMEscan binding; details: read-out: % Ctrl AKT3
Method: as §3, §2

PAK1 = PAK1 (Homo sapiens, UniProt Q13153); assay: KINOMEscan binding; details: read-out: % Ctrl PAK1
Sequence of PAK1 (Q13153 whole entry): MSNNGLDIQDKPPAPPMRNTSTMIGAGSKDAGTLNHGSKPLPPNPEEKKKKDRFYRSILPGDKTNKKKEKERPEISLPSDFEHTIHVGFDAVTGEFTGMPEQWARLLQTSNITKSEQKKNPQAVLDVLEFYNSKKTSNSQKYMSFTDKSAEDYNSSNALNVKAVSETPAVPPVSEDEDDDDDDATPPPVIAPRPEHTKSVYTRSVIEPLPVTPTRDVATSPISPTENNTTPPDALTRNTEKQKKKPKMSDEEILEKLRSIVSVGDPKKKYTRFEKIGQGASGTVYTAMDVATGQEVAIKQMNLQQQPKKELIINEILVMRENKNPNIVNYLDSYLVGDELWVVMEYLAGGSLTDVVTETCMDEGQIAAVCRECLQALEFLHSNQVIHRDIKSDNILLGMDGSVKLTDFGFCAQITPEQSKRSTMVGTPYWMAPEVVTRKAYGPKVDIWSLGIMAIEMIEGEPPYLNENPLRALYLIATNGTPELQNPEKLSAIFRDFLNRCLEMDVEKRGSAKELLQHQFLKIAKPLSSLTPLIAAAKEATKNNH
Method: as §3, §2

T1 sequence (P51813 417-675 limits assumed): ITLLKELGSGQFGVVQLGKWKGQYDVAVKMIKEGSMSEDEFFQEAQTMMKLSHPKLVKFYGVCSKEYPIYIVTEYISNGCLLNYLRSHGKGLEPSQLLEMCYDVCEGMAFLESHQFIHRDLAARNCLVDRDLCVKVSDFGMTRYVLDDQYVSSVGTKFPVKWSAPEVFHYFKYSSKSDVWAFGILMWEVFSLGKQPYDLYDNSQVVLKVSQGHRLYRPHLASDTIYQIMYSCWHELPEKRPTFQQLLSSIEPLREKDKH
Sequence of ITK (Q08881 whole entry): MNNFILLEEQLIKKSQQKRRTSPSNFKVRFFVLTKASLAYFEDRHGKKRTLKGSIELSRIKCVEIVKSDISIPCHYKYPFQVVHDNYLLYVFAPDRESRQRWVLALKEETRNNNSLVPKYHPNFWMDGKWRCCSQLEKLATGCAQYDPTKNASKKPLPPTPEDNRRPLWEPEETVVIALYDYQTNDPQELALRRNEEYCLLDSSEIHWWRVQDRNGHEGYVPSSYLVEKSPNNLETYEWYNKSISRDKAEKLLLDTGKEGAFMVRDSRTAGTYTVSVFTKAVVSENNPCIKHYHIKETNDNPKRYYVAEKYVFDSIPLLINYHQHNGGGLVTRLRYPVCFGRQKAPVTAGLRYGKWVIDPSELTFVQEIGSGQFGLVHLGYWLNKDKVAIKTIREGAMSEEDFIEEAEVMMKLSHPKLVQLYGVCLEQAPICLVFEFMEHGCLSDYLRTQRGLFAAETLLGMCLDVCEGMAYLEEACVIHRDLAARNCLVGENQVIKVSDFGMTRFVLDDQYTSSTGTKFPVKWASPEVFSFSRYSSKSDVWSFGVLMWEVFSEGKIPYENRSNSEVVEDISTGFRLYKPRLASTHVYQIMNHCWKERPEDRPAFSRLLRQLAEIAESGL
Sequence of EGFR (P00533 25-1210): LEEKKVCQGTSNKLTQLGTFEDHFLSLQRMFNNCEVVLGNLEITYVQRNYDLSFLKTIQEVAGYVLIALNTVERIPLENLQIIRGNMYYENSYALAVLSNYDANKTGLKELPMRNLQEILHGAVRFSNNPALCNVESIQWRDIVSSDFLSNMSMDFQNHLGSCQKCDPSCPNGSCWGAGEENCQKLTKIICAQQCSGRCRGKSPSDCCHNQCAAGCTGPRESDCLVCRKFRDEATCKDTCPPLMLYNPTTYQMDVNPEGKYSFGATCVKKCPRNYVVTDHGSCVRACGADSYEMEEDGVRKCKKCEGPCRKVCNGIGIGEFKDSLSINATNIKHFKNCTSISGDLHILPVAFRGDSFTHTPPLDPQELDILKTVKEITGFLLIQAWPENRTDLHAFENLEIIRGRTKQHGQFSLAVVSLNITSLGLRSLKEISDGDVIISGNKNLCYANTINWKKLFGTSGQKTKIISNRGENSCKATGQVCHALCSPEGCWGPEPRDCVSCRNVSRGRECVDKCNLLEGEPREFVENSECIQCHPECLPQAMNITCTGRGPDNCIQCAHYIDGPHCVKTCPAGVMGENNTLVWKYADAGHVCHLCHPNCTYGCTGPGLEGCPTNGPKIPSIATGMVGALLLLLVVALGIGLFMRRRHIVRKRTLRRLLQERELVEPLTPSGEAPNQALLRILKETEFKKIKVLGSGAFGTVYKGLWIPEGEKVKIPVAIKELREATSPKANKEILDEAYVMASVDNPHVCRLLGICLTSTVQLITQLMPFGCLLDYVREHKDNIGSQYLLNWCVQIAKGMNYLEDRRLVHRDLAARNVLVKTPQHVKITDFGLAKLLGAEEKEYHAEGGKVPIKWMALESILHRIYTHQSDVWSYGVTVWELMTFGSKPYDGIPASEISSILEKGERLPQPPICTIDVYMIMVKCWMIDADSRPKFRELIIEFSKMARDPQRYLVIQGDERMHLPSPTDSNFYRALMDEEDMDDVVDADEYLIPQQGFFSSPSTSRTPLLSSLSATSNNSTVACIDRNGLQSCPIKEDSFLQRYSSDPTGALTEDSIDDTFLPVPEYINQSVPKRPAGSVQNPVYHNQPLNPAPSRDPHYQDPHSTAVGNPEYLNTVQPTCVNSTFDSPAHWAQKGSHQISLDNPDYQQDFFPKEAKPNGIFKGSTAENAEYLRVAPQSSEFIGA
Sequence of BTK (Q06187 whole entry, species assumed): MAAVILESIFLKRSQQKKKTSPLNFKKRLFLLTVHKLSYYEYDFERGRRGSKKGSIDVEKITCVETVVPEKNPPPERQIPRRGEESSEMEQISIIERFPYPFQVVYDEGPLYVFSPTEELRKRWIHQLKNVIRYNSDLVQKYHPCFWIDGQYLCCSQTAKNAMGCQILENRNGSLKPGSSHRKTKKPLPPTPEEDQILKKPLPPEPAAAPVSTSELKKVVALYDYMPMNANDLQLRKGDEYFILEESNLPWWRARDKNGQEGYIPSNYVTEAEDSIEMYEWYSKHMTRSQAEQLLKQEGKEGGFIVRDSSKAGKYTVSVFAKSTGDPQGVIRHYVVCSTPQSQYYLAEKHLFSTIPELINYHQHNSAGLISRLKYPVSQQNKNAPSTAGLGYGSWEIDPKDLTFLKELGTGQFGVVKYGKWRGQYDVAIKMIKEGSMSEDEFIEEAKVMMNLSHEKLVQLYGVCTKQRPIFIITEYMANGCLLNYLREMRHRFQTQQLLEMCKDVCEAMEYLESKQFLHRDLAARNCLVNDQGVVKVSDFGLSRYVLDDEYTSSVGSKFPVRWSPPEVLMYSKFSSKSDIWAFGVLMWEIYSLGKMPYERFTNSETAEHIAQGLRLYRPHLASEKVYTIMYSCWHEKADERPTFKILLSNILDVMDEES
Sequence of ERBB4 (Q15303 26-1308): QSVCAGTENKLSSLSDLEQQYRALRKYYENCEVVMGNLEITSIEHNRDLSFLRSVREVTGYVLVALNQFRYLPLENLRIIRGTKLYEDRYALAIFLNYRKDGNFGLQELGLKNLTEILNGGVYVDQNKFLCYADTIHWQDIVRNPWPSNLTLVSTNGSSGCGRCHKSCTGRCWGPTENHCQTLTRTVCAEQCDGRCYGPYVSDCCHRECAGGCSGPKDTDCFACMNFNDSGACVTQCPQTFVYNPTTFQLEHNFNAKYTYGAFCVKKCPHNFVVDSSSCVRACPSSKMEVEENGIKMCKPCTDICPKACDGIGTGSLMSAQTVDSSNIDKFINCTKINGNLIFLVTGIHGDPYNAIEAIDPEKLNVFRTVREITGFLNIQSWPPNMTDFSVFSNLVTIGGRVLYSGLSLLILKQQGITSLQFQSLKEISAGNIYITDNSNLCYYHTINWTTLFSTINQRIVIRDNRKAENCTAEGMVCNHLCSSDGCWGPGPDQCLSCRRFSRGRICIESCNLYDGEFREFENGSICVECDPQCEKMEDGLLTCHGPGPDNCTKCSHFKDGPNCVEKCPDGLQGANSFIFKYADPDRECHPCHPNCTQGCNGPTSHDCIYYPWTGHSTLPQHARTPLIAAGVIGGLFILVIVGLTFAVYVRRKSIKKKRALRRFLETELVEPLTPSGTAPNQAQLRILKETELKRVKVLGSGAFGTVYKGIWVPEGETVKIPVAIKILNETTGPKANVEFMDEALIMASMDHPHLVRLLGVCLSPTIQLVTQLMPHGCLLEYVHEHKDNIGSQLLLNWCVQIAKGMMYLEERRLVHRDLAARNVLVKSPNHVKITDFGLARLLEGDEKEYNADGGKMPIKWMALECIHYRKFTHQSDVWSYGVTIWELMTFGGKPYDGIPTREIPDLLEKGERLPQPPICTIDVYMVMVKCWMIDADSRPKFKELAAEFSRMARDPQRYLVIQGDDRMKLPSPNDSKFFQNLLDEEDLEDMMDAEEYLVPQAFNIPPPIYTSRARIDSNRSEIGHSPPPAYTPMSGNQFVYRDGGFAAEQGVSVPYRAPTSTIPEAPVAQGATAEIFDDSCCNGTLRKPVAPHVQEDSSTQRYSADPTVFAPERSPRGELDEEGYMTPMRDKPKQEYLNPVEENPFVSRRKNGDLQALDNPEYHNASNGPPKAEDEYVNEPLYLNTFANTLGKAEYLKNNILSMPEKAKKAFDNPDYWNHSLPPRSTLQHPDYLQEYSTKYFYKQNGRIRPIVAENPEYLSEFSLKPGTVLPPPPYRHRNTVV
Sequence of AKT3 (Q9Y243 whole entry): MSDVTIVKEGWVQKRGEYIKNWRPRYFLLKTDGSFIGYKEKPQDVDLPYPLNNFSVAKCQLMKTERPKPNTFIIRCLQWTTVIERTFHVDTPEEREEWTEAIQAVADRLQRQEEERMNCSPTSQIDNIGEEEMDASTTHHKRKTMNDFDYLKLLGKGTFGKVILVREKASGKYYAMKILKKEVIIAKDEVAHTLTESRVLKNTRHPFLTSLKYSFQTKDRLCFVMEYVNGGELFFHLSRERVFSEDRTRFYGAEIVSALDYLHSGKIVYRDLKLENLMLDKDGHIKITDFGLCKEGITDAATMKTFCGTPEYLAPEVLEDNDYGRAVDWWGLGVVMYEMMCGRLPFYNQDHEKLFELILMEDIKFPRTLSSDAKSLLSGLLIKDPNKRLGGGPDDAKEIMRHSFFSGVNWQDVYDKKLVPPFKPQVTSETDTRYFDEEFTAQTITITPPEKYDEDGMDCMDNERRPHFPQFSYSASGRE

Row | Compound | koff (His6-hsBMX) [s⁻¹] | kon (His6-hsBMX) [M⁻¹ s⁻¹] | GI50 (Jurkat) [µM] | GI50 (RS4(11)) [µM] | remaining binding at 1 µM (BTK) [%] | remaining binding at 1 µM (ITK) [%] | remaining binding at 1 µM (EGFR) [%] | remaining binding at 1 µM (ERBB4) [%] | remaining binding at 1 µM [1] [%] | remaining binding at 1 µM (PIK3CA) [%] | remaining binding at 1 µM (PIK3CB) [%] | remaining binding at 1 µM (MTOR) [%] | remaining binding at 1 µM (AKT3) [%] | remaining binding at 1 µM (PAK1) [%]
1 | C=CC(=O)Nc1cc(-n2c(=O)ccc3cnc4cc(-c5ccc(NS(C)(=O)=O)cc5)ccc4c32)ccc1C [JS24] | < 0.0001 | 140000 | 5.48 | 2.09 | – | – | – | – | – | – | – | – | – | –
2 | C=CC(=O)Nc1cc(C)cc(-n2c(=O)ccc3cnc4cc(-c5ccc(NS(C)(=O)=O)cc5)ccc4c32)c1 [JS25] | – | – | – | – | 0 | 4.7 | 87 | 66 | 21 | 79 | 89 | 100 | 99 | 100

— paper PMC8341910, “Structural and biophysical insights into the mode of covalent binding of rationally designed potent BMX inhibitors” (RSC Chemical Biology, 2020)
